As usually defined, the melting point is the temperature of the solid-liquid transition.

Compound `Oc1ccc(-c2cc3c(Br)c(O)cc(Br)c3o2)cc1` displayed a melting point of 215 to 217 °C. The result for `CC(C)n1nc(-c2c(NCCO)nc(N)nc2-c2ccccc2)ccc1=O` reads 222 to 224 °C.

`COC(=O)c1ccc(OCCON=C(C)c2ccc(C(C)(C)C)cc2)cc1O` showed a melting point of 65.4 to 66.8 °C.

The compound `COc1cc(N2CCCCC2)ccc1C(=O)c1ccccc1C(=O)O` yielded a melting point of 199 to 201 °C. `O=c1[nH]ccc2c1ccc1[nH]cc(CCN(Cc3ccccc3)Cc3ccccc3)c12`: the melting point was in the range of 250 to 253 °C. `O=C(NCc1ccco1)c1ccc(-c2ccc3nnn(Cc4ccc5ncccc5c4)c3n2)cc1F` had a melting point of 144 to 147 °C. Then `CCOC(=O)c1csc(NC(=O)c2cccc(C#N)c2)n1`, with 203 to 204 °C; and `Nc1c(Cl)cnc(OCC(=O)O)c1Cl`, with 200 to 201 °C; and `COC(=O)C1CC(c2ccncc2)CCC1=O` (stereo not given), with 82 to 83 °C. Then `CCOC(=O)Cn1c(-c2ccccc2)nc2cccnc21`, with 93 to 95 °C. Then `Cc1nccc(N2CCC(CN3CCN(S(=O)(=O)c4ccc(C(F)(F)F)cc4)CC3)CC2)n1`, with 135 to 136 °C; and `CO/N=C(/CNC(=O)c1cnc(OCC(F)(F)F)c(-c2ccc(Cl)c(Cl)c2)c1)C(F)(F)F`, with 124 to 126 °C; and `Cc1cc(N2C(=O)c3ccccc3C2=O)c(C)cc1N`, with 167 to 169 °C. `O=C(O)COCCCCSc1cnc(-c2ccccc2)c(-c2ccccc2)n1` yielded a melting point of 86 to 88 °C. The result for `C(=Nn1ccnc1)c1ccccc1` reads 115 °C. As to `COC1=CC(=O)C2=C(C1=O)C1C=CC2C1` (stereo not given), the melting point is 117 to 118 °C. With `Nc1nc(Nc2ccccc2)nc(-c2cc(Cl)ccc2Cl)n1`, the melting point was in the range of 180 to 181 °C. Then `CC(=O)Nc1ccc(O)c(C(=O)C=Cc2ccccc2)c1`, with 162 to 165 °C; and `COc1ccc(NC(=O)Nc2ccc(Cl)c(Cl)c2)cc1NC(=S)Nc1cc(C(F)(F)F)cc(C(F)(F)F)c1`, with 181 °C; and `Cn1nc(CCc2ccncc2)c2c(=O)n(-c3ccccc3)c3ncccc3c21`, with 285 to 286 °C.

`CN1CCC(c2c[nH]c3ccc(OS(=O)(=O)c4ccccc4F)cc23)CC1` registered a melting point of 180 to 182 °C.

In the case of `O=C(O)c1cc(=O)cc(-c2cccc3ccccc23)o1`, the melting point fell in the range of 248 to 249 °C. With `COc1ccc(CCOc2cccc(-c3cccc(C(N)=O)c3)n2)cc1OC`, the melting point is 141 to 142 °C. The result for `Cc1cccc(C)c1NC(=O)/C=C1\SCC(=O)N1c1ccccc1` reads 228 °C; that for `O=c1c2ccc(Cl)cc2[nH]c2c(O)nn(C3CCCc4ccccc43)c(=O)c12` (racemic), over 300 °C. Then `NCCSc1nc(-c2ccccc2)c(-c2ccccc2)[nH]1`, with 152 to 154 °C; and `COC(=O)c1cc(N)c(C(F)(F)F)cc1NC(C)=O`, with 143 to 152 °C.

As for `O=C(COC1Cc2cccc(O)c2CC1OCC(=O)N1CCOCC1)N1CCOCC1` (stereo not given), the melting point lay in the range of 68 to 77 °C. With `Clc1ccc(-c2nc3ccccc3n2-c2ccccc2)cc1`, the melting point lay within 139 to 141 °C. In turn, `Cc1ccc2c(=O)c(O)cn(C)c2c1` gave a melting point of 268 °C. For `CCn1c([N+](=O)[O-])cnc1-c1nnc2ccc(N)nn12`, the melting point is 218 to 222 °C. Consider `COc1ccc(Br)cc1-c1ccc2nonc2c1`, for which the melting point was in the range of 135 to 137 °C. The result for `O=C(O)c1ccccc1NCCC=C1c2ccccc2CCc2ccccc21` reads 164 to 167 °C; that for `COc1ccc(Oc2ccc(C(=O)C(=O)c3ccc(Oc4ccc(OC)cc4)cc3)cc2)cc1`, 121 to 122 °C. Then `CCCCn1c(=O)n(CC)c(=O)c2c1ncn2S(=O)(=O)c1ccc(C)cc1`, with 135 to 139 °C; and `CC(C)CC(=O)Nc1c(C(=O)c2cc(Cl)ccn2)[nH]c2cc(Cl)ccc12`, with 183 to 184 °C; and `CC(=O)NCc1cccc(-c2csc(N=C(N)N)n2)n1`, with 198 to 200 °C. As to `COC1CN=C(N2CCN(c3ccc(O)cc3)CC2)S1` (stereo not given), the melting point came out at 166 °C. For the compound `CC(=O)CCCCCCC(=O)c1ccc(OCc2ccccc2)c(OCc2ccccc2)c1`, the melting point lay within 64 to 66 °C. The result for `Cc1ccc(C)n1-c1ccc(F)c([N+](=O)[O-])c1` reads 99 to 101 °C.

`COc1cc(C)cc(OC)c1N(CC1CCCCC1)C(=O)CNC(=O)c1cc2ccccc2n1CCC(=O)NC1C2CC3CC(C2)CC1C3` (stereo not given) came in with a melting point of 96 °C. The result for `CCCc1c(-c2ccc(OC(F)F)c(OC3CC3)c2)[nH]c2cnn(COCC[Si](C)(C)C)c(=O)c12` reads 208 to 210 °C.

Turning to `OC[C@H](O)CCOc1nc(N2CCNCC2)nc2ccccc12`, the melting point lay within 151 to 156 °C. `CS(=O)CC(=N)c1ccccc1O` (stereo not given): the melting point lay in the range of 194 to 195 °C.

`COCCc1nc2c(N)nc3cc(-c4ccccc4)ccc3c2n1CCCCNS(C)(=O)=O`: the melting point lay within 201 to 202 °C.

For `CC(C)(CCCCCCCCCCC(C)(C)C(Cl)(Cl)C(=O)O)C(Cl)(Cl)C(=O)O`, the melting point came to 154 °C. In turn, `OCc1cnoc1-c1ccc(C(F)(F)F)cc1` registered a melting point of 106 to 107 °C. Then `CCCN(c1c([O-])[c+](N(CCC)C2CC(C)(C)NC(C)(C)C2)[c+]1[O-])C1CC(C)(C)NC(C)(C)C1`, with 198 to 199 °C. With `N=C(NS(=O)(=O)c1ccc(Cl)cc1)C1CN(c2ccc(Cl)cc2)C(c2ccc(Cl)cc2Cl)=N1` (stereo not given), the melting point was in the range of 165 to 166 °C.

Compound `COCc1cc(O)nc2nc(N)ccc12` displayed a melting point of over 290 °C.

`CCOC(=O)CSc1nc(Cl)cc(NN=Cc2ccc(Cl)cc2)n1` had a melting point of 162 to 165 °C. The result for `NS(=O)(=O)c1ccc(-c2[nH]c3ccccc3c2-c2ccc(Cl)cc2)cc1` reads 298 to 300 °C; that for `O=C(NC(=O)c1cc(F)c(F)cc1Cl)Nc1cccnc1N1CCC(C(=O)NCCO)CC1`, 203 °C. The result for `O=C(O)C1c2cc(Br)ccc2COc2ccccc21` (stereo not given) reads 187 to 189 °C; that for `Cc1c2c(nc3c(C(F)(F)F)cccc13)CCCNC2`, 78 °C; that for `CCCCNC(=O)Nc1ccccc1NC(=O)NCCCC`, 163 to 164 °C.

In the case of `Cc1csc2c(Br)c(C=O)sc12`, the melting point is 127 to 129 °C. As to `CCOC(=O)CCc1cn(-c2ccc(N)cn2)nc1C(C)C`, the melting point was in the range of 75 to 76 °C. The result for `O=C1c2cccc(SCCC(O)O)c2C(=O)c2cccc(SCCC(O)O)c21` reads 238 to 239 °C; that for `CN(C)C(=O)CN1CCc2ccc([N+](=O)[O-])cc2CC1`, 94 to 96 °C; that for `Cn1cc(-c2cccc(N3CCc4c(cc5n4CCCC5)C3=O)c2CO)cc(Nc2ccc(C3CNC3)cn2)c1=O`, 227 to 229 °C. In turn, `Cc1ccc(NS(=O)(=O)c2ccc(N)cc2)cc1` returned a melting point of 174 to 176 °C. Turning to `CC(C)(C)OC(=O)N1C[C@@H](C=O)CC1=O`, the melting point was in the range of 120 to 122 °C. Then `CCCc1nc(C(O)CCC)c(C)[nH]1` (stereo not given), with 169 to 171 °C.

The compound `O=c1c2scc(Br)c2ncn1O` returned a melting point of 244 to 247 °C. The result for `CC1(C)OCc2cc(C(O)c3c[nH]cn3)ccc2O1` (stereo not given) reads 96 °C. For the compound `CC(C)c1ccc(N(C=O)C(=O)N(C)C)cc1`, the melting point lay in the range of 30 to 32 °C. Then `CCC1(CC)OC(C(=O)O)Oc2ccc(Cl)cc21` (stereo not given), with 108 °C. Then `CC1C=C(c2nc3cccc(F)c3s2)C=CC1=N` (stereo not given), with 175 to 177 °C; and `COc1ccc(-c2c(Cl)c(CN3CCCC3=O)nc3sc4c(c23)CCN(Cc2ccccc2)C4)cc1OC`, with 139 to 140 °C; and `Cn1ccnc1-c1ccc(-c2cnc([C@H](Cc3ccccn3)N(C=O)OC(C)(C)C)n2C)cc1`, with 160 to 163 °C.

In turn, `NC1=C(NC=O)C(=O)N2CCN=C2N1` gave a melting point of 268 °C.

As for `CCC(O)C(=O)Nc1c(C)c(C)c2c(c1C)C(c1ccc(C(C)C)cc1)CO2` (stereo not given), the melting point fell in the range of 146 to 147 °C. Regarding `Cc1ccc([N+](=O)[O-])c(Oc2cc(C(F)(F)F)nn2C)c1`, the melting point is 88 to 90 °C. Then `O=C(c1ccn2c1CSC2c1cccnc1)c1c[nH]c2ccccc12` (stereo not given), with 237 to 238 °C. Then `CCCCCCS(=O)(=O)c1nn2c(=O)c(C(C)=O)cnc2s1`, with 124 to 125 °C; and `COCc1cc([N+](=O)[O-])c(Cl)cc1C#N`, with 57 to 59 °C; and `O=C(c1sccc1-n1cccc1)N1CCCCC1`, with 126 °C. Then `Cn1nc(N)nc1NCCCOc1cccc2c(N3CCCCC3)nccc12`, with 173 °C; and `CCOC(=O)CCc1cccc(-c2c(CC(=O)Nc3ccc(F)cc3C(F)(F)F)c(=O)oc3cc(Cl)c(C)cc23)c1`, with 121 to 123 °C. In turn, `O=C(Cc1ccc(Cl)cc1)NC1N=C(c2ccccc2)c2ccccc2NC1=O` (stereo not given) had a melting point of 238 to 240 °C. With `COc1cc2ccccc2cc1N(C)C(=O)N1CCN(c2cc(Cl)cc(Cl)c2)CC1`, the melting point is 165 to 167 °C. In the case of `O=C(Nc1ccccc1C(c1ccc(O)cc1)c1ccc(O)cc1)c1ccc([N+](=O)[O-])cc1`, the melting point was 258 to 259 °C.

As to `Cc1cc(Nc2nc(-c3ccc(Cl)c(Cl)c3)nc3ccccc23)[nH]n1`, the melting point is 274 °C. `CCCCCc1ccc(C(=O)Nc2ccc3cc(CN4CCCC4)cnc3c2C)cc1`: the melting point was determined as 121 °C. The result for `O=C(NC1CCS(=O)(=O)CC1)NC12CC3CC(CC(C3)C1)C2` reads 244 to 246 °C.

`c1ccc2c(c1)Cn1cccc1C1(CCNCC1)O2`: the melting point lay in the range of 168 to 170 °C. The result for `CCOC(=O)C(=CNC1CC1)C(=O)c1cc(F)c(F)c(Br)c1F` reads 74 to 76 °C; that for `CCn1nnnc1SCc1c(S(C)(=O)=O)ccc(C(=O)OC2=CC(=O)CCC2)c1Cl`, 122 to 123 °C; that for `O=C(C=C1CCCCC1)C1Cc2c([nH]c3ccccc23)C(c2ccc3c(c2)OCO3)N1` (stereo not given), 116 to 118 °C.

The values above are taken from a melting point compilation (Tetko et al.; mined from patent text by program, amines drawn as free bases though some values may be those of a salt).
